Laboratory results: patent US9149475B2, “Protein kinase C inhibitors and uses thereof” (Rigel Pharmaceuticals, Inc., priority 2009, dated 2015)

tested on: Human primary T cells; experiment: IL-2 ELISA, human primary T cell, anti-CD3+CD28+ (whole cell assay); assay type: cell-based; conditions: Homo sapiens, T-cell, 24 h, human primary T cells stimulated with anti-CD3 + anti-CD28, 24 hours
In short: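 PBMC-derived T cells, pre-expanded on αCD3/αCD28 with IL-2 and then washed free of IL-2, were preincubated with compound for 1 hr at 37° C (100,000 cells/well). They were then stimulated on 1 μg/ml αCD3 plus 5 μg/ml αCD28 for 24 h, and supernatant IL-2 was measured by ELISA. The counter-assay used 0.5 ng/ml PMA plus 0.1 μM ionomycin instead.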

Row | IC50 [nM] | Compound
1 | 250 to 500 | [2H]C([2H])([2H])N1C(C)(C)CC(Nc2nc(Nc3ccc(OC4CCN(C(C)C)CC4F)c(OC(F)F)c3)ncc2F)CC1(C)C (stereo not shown) [III-112, N2-(3-(difluoromethoxy)-4-(3-fluoro-1-isopropylpiperidin-4-yloxy)phenyl)-5-fluoro-N4-(1-trideuteromethyl-2,2,6,6-tetramethylpiperidin-4-yl)pyrimidine-2,4-diamine]
2 | < 250 | [2H]C([2H])([2H])N1C(C)(C)CC(Nc2nc(Nc3ccc(C)c(-n4cnnn4)c3)ncc2F)CC1(C)C [III-113, 5-fluoro-N2-(4-methyl-3-(1H-tetrazol-1-yl)phenyl)-N4-(1-trideuteromethyl-2,2,6,6-tetramethylpiperidin-4-yl)pyrimidine-2,4-diamine]
3 | < 250 | [2H]C([2H])([2H])N1C(C)(C)CC(Nc2nc(Nc3cccc(-n4cnnn4)c3)ncc2F)CC1(C)C [III-114, 5-fluoro-N2-(3-(1H-tetrazol-1-yl)phenyl)-N4-(1-trideuteromethyl-2,2,6,6-tetramethylpiperidin-4-yl)pyrimidine-2,4-diamine]
4 | < 250 | [2H]C([2H])([2H])N1C(C)(C)CC(Nc2nc(Nc3cccc(-n4nnnc4C)c3)ncc2F)CC1(C)C [III-115, 5-fluoro-N2-(3-(5-methyl-1H-tetrazol-1-yl)phenyl)-N4-(1-trideuteromethyl-2,2,6,6-tetramethylpiperidin-4-yl)pyrimidine-2,4-diamine]
5 | < 250 | CC1(C)CC(Nc2nc(Nc3cc(C4CC4)cc(-n4cnnn4)c3)ncc2F)CC(C)(C)N1 [III-116, N^2-(3-cyclopropyl-5-(1H-tetrazol-1-yl)phenyl)-5-fluoro-N^4(2,2,6,6-tetramethylpiperidin-4-yl)pyrimidine-2,4-diamine]
6 | < 250 | CN1C(C)(C)CC(Nc2nc(Nc3cc(C4CC4)cc(-n4cnnn4)c3)ncc2F)CC1(C)C [III-117, N^2-(3-cyclopropyl-5-(1H-tetrazol-1-yl)phenyl)-5-fluoro-N^4(1,2,2,6,6-pentamethylpiperidin-4-yl)pyrimidine-2,4-diamine]
7 | < 250 | CC1(C)CC(Nc2nc(Nc3ccc(C4CC4)c(-n4cnnn4)c3)ncc2F)CC(C)(C)N1 [III-118, N^2-(4-cyclopropyl-3-(1H-tetrazol-1-yl)phenyl)-5-fluoro-N^4(2,2,6,6-tetramethylpiperidin-4-yl)pyrimidine-2,4-diamine]
8 | < 250 | CN1C(C)(C)CC(Nc2nc(Nc3ccc(C4CC4)c(-n4cnnn4)c3)ncc2F)CC1(C)C [III-119, N^2-(4-cyclopropyl-3-(1H-tetrazol-1-yl)phenyl)-5-fluoro-N^4(1,2,2,6,6-pentamethylpiperidin-4-yl)pyrimidine-2,4-diamine]
9 | 500 to 1000 | Cn1nnnc1-c1cc(Nc2ncc(F)c(NC3CC(C)(C)NC(C)(C)C3)n2)ccc1F [III-120, 5-fluoro-N2-(4-fluoro-3-(1-methyl-1H-tetrazol-5-yl)phenyl)-N4-(2,2,6,6-tetramethylpiperidin-4-yl)pyrimidine-2,4-diamine]
10 | < 250 | CN1C(C)(C)CC(Nc2nc(Nc3ccc(F)c(-c4nnnn4C)c3)ncc2F)CC1(C)C [III-121, 5-fluoro-N2-(4-fluoro-3-(1-methyl-1H-tetrazol-5-yl)phenyl)-N4-(1,2,2,6,6-pentamethylpiperidin-4-yl)pyrimidine-2,4-diamine]
11 | < 250 | CC(C)Oc1ccc(Nc2ncc(F)c(NC3CC(C)(C)NC(C)(C)C3)n2)cc1-c1nnnn1C [III-122, 5-fluoro-N2-(4-isopropoxy-3-(1-methyl-1H-tetrazol-5-yl)phenyl)-N4-(2,2,6,6-tetramethylpiperidin-4-yl)pyrimidine-2,4-diamine]
12 | < 250 | CC(C)Oc1ccc(Nc2ncc(F)c(NC3CC(C)(C)N(C)C(C)(C)C3)n2)cc1-c1nnnn1C [III-123, 5-fluoro-N2-(4-isopropoxy-3-(1-methyl-1H-tetrazol-5-yl)phenyl)-N4-(1,2,2,6,6-pentamethylpiperidin-4-yl)pyrimidine-2,4-diamine]
13 | > 1000 | Cn1nnnc1-c1cc(Nc2ncc(F)c(NC3CC(C)(C)NC(C)(C)C3)n2)ccc1OC1CCOCC1 [III-124, 5-fluoro-N2-(3-(1-methyl-1H-tetrazol-5-yl)-4-(tetrahydro-2H-pyran-4-yloxy)phenyl)-N4-(2,2,6,6-tetramethylpiperidin-4-yl)pyrimidine-2,4-diamine]
14 | 250 to 500 | CN1C(C)(C)CC(Nc2nc(Nc3ccc(OC4CCOCC4)c(-c4nnnn4C)c3)ncc2F)CC1(C)C [III-125, 5-fluoro-N2-(3-(1-methyl-1H-tetrazol-5-yl)-4-(tetrahydro-2H-pyran-4-yloxy)phenyl)-N4-(1,2,2,6,6-pentamethylpiperidin-4-yl)pyrimidine-2,4-diamine]
15 | > 1000 | Cn1nnnc1-c1cc(Nc2ncc(F)c(NC3CC(C)(C)NC(C)(C)C3)n2)ccc1OC1COC1 [III-126, 5-fluoro-N2-(3-(1-methyl-1H-tetrazol-5-yl)-4-(oxetan-3-yloxy)phenyl)-N4-(2,2,6,6-tetramethylpiperidin-4-yl)pyrimidine-2,4-diamine]
16 | < 250 | CN1C(C)(C)CC(Nc2nc(Nc3ccc(OC4COC4)c(-c4nnnn4C)c3)ncc2F)CC1(C)C [III-127, 5-fluoro-N2-(3-(1-methyl-1H-tetrazol-5-yl)-4-(oxetan-3-yloxy)phenyl)-N4-(1,2,2,6,6-pentamethylpiperidin-4-yl)pyrimidine-2,4-diamine]
17 | 250 to 500 | COCCn1nnnc1-c1cc(Nc2ncc(F)c(NC3CC(C)(C)N(C)C(C)(C)C3)n2)ccc1F [III-128, 5-fluoro-N2-(4-fluoro-3-(1-(2-methoxyethyl)-1H-tetrazol-5-yl)phenyl)-N4-(1,2,2,6,6-pentamethylpiperidin-4-yl)pyrimidine-2,4-diamine]
18 | > 1000 | COCCn1nnnc1-c1cc(Nc2ncc(F)c(NC3CC(C)(C)NC(C)(C)C3)n2)ccc1F [III-129, 5-fluoro-N2-(4-fluoro-3-(1-(2-methoxyethyl)-1H-tetrazol-5-yl)phenyl)-N4-(2,2,6,6-tetramethylpiperidin-4-yl)pyrimidine-2,4-diamine]
19 | < 250 | Cn1nnnc1-c1cc(Nc2ncc(F)c(NC3CC(C)(C)NC(C)(C)C3)n2)ccc1Cl [III-130, N2-(4-chloro-3-(1-methyl-1H-tetrazol-5-yl)phenyl)-5-fluoro-N4-(2,2,6,6-tetramethylpiperidin-4-yl)pyrimidine-2,4-diamine]
20 | < 250 | CN1C(C)(C)CC(Nc2nc(Nc3ccc(Cl)c(-c4nnnn4C)c3)ncc2F)CC1(C)C [III-131, N2-(4-chloro-3-(1-methyl-1H-tetrazol-5-yl)phenyl)-5-fluoro-N4-(1,2,2,6,6-pentamethylpiperidin-4-yl)pyrimidine-2,4-diamine]
21 | 250 to 500 | Cc1cc(Nc2ncc(F)c(NC3CC(C)(C)NC(C)(C)C3)n2)cc(-c2nnnn2C)c1 [III-132, 5-fluoro-N2-(3-methyl-5-(1-methyl-1H-tetrazol-5-yl)phenyl)-N4-(2,2,6,6-tetramethylpiperidin-4-yl)pyrimidine-2,4-diamine]
22 | < 250 | Cc1cc(Nc2ncc(F)c(NC3CC(C)(C)N(C)C(C)(C)C3)n2)cc(-c2nnnn2C)c1 [III-133, 5-fluoro-N2-(3-methyl-5-(1-methyl-1H-tetrazol-5-yl)phenyl)-N4-(1,2,2,6,6-pentamethylpiperidin-4-yl)pyrimidine-2,4-diamine]
